Measurements taken from patent publication US10426758B2, “Sibiriline derivatives for use for preventing and/or treating disorders associated with cellular necroptosis” (Institut National de la Sante et de la Recherche Medicale …, priority 2015, dated 2019).

Legend:
L929 cells = assay: Anti-necroptotic effect, L929 cells, TNF + zVAD, FACS of propidium iodide-stained nuclei; assay type: cell-based
Procedure: L929 cells, L929AsFas cells, Jurkat FADD-deficient cells (Jurkat FADD^−/−), U937 cells are pretreated for 1 h with increased concentrations of Sib (0, 5, 10, 20 μM) and then treated respectively with TNF-α (10 ng/ml)+zVAD (20 μM), FasL (200 ng/ml)+zVAD (20 μM), TNF-α (10 ng/ml), TRAIL (200 ng/ml)+zVAD (30 μM) or TRAIL (200 ng/ml)+zVAD (30 μM)+CHX (1 μg/ml). % of cell death is determined after 24 h and calculated by a FACS analysis of Propidium Iodide-stained nuclei. In each case, the EC50 is determined as well as the % of rescue from cell death.

[1] = target: ABL1(H396P)-nonphosphorylated (Homo sapiens, UniProt P00519, H396P); assay: Competition binding assay for kinase targets of Sib (456 kinases); conditions: remaining kinase on the matrix after competition, read-out: Percent Control (%)
Procedure: (§1) The assay is performed by combining three components: DNA-tagged kinase (a total of 456 kinases were tested); immobilized ligand; and a test compound (here Sib). The ability of Sib to compete with the immobilized ligand is measured via quantitative PCR of the DNA tag.

RIPK1 = target: T1, RIPK1 (Homo sapiens, UniProt Q13546); assay: as above; conditions: remaining kinase on the matrix after competition, read-out: Percent Control (%)
T1 construct: purchased DiscoveRx Corporation (KdELECT service)
T1 sequence (Q13546 1-671): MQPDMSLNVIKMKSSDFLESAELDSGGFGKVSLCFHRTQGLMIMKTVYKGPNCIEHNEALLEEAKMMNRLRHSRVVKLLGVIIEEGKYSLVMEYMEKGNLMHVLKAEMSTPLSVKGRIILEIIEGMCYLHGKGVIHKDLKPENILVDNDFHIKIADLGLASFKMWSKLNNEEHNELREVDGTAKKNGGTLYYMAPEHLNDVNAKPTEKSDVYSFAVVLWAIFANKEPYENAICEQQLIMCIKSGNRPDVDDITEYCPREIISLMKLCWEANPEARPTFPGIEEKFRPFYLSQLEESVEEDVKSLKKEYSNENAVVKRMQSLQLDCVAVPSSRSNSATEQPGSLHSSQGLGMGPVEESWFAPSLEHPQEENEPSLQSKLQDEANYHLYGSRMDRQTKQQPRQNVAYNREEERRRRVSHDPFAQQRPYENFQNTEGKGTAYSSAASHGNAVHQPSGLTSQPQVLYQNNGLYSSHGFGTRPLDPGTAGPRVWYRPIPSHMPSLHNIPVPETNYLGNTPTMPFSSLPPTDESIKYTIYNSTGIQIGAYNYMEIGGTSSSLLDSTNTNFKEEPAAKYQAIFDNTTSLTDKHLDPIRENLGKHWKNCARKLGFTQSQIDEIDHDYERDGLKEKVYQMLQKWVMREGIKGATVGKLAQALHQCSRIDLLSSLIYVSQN
Procedure: as §1

[2] = target: T2, JAK2 (JH1domain-catalytic) (Homo sapiens, UniProt O60674); assay: as above; conditions: remaining kinase on the matrix after competition, read-out: Percent Control (%)
T2 construct: JAK2(JH1domain-catalytic)
Procedure: as §1

EPHB6 = target: T3, EPHB6 (Homo sapiens, UniProt O15197); assay: as above; conditions: remaining kinase on the matrix after competition, read-out: Percent Control (%)
T3 sequence (O15197 32-1021): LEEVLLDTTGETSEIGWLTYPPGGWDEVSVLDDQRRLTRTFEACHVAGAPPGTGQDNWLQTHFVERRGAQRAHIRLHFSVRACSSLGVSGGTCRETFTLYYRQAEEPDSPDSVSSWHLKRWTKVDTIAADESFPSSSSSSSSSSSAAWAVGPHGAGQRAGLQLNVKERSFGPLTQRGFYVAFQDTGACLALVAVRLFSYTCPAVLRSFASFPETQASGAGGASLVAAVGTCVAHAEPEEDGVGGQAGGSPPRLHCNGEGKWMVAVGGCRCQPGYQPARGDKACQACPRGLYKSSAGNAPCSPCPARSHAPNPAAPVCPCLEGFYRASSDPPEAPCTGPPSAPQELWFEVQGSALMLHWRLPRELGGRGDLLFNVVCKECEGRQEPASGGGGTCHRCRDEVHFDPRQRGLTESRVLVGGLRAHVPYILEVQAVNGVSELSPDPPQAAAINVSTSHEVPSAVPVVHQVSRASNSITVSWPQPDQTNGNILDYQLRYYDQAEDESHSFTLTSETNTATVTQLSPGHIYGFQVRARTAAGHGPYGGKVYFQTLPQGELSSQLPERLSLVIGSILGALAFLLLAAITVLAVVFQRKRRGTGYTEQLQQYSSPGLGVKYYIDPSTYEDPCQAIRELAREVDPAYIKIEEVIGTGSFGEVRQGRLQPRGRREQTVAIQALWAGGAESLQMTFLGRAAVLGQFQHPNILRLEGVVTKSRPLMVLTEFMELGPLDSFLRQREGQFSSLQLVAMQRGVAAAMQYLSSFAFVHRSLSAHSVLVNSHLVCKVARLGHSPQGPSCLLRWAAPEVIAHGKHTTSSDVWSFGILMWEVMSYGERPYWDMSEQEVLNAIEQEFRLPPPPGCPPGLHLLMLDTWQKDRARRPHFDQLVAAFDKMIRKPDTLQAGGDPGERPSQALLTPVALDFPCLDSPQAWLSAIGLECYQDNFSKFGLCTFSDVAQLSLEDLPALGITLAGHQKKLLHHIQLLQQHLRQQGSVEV
Procedure: as §1

DRAK2 = target: T4, DRAK2 (Homo sapiens, UniProt O94768); assay: as above; conditions: remaining kinase on the matrix after competition, read-out: Percent Control (%)
T4 sequence (O94768 1-372): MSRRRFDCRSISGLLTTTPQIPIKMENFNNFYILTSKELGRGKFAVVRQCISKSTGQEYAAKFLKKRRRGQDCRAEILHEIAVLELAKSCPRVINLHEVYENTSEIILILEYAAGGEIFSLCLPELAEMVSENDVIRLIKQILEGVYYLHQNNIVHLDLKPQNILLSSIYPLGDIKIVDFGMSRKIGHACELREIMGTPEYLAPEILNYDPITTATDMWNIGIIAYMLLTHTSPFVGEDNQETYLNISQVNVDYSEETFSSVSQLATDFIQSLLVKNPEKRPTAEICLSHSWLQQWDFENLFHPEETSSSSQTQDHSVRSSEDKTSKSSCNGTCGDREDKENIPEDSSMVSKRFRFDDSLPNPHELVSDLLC
Procedure: as §1

T2 sequence (O60674 849-1124 limits assumed): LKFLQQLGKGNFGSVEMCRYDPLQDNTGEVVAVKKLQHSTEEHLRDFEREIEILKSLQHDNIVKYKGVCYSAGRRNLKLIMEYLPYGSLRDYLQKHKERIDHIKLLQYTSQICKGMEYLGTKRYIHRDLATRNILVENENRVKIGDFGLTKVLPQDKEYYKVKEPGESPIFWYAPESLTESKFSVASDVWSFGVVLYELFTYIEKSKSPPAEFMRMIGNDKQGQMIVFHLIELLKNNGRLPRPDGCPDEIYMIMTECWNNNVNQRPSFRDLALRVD

## Oc1ccc(-c2cc3cccnc3[nH]2)cc1 [compound 2, 4-(1H-pyrrolo[2,3-b]pyridin-2-yl)phenol]
L929 cells; Mus musculus, 1 h pretreatment, cell death after 24 h
  EC50: 3 µM
L929 cells; rescue from cell death, 24 h
  % Rescue: 80%
[1]
  remaining binding at 10 µM: 1%
RIPK1
  remaining binding at 10 µM: 0.2%
[2]
  remaining binding at 10 µM: 0.2%
EPHB6
  remaining binding at 10 µM: 0.65%
DRAK2
  remaining binding at 10 µM: 0.75%
